# According to patent publication US7544694B2, “Substituted diaza-spiro-[5.5]-undecane derivatives and their use as neurokinin antagonists” (Janssen Pharmaceutica N.V., priority 2004, dated 2009):
# Experiments:
# Type in all cases: cell-based
# NK1 = NK1 (Homo sapiens, UniProt P25103); assay: Signal transduction (ST), intracellular Ca++ (FLIPR), functional NK1 antagonistic activity; details: antagonist, read-out: NK1 pIC50 (converted)
# Summary of the method: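 Confluent cells were loaded with 2 μM Fluo3 for 1 h at 37° C, then washed into Krebs buffer pH 7.4 with 1.25 mM CaCl2 and 2.5 mM probenecid. Antagonists were preincubated 20 min at RT before agonist addition. Peak Ca++ transients were read by FLIPR, with EC50 or IC50 from sigmoidal non-linear regression.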
# NK2 = molecular target: T1, NK2 (Homo sapiens, UniProt P21452); assay: Signal transduction (ST), intracellular Ca++ (FLIPR), NK2; details: antagonist, read-out: NK2 pIC50 (converted)
# T1 sequence (P21452 1-398): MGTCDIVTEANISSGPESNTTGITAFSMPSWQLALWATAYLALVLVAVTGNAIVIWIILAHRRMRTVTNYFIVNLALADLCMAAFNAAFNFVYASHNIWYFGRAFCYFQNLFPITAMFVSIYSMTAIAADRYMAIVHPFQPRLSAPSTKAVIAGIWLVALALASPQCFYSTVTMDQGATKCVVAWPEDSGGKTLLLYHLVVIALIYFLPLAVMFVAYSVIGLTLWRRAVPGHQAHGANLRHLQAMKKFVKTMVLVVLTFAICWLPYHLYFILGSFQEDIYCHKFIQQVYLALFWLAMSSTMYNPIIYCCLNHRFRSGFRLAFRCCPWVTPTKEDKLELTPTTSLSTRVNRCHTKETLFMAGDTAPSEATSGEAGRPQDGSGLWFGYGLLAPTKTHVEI
# NK3 = molecular target: T2, NK3 (Homo sapiens, UniProt P29371); assay: Signal transduction (ST), intracellular Ca++ (FLIPR), NK3; details: antagonist, read-out: NK3 pIC50 (converted)
# T2 sequence (P29371 1-465): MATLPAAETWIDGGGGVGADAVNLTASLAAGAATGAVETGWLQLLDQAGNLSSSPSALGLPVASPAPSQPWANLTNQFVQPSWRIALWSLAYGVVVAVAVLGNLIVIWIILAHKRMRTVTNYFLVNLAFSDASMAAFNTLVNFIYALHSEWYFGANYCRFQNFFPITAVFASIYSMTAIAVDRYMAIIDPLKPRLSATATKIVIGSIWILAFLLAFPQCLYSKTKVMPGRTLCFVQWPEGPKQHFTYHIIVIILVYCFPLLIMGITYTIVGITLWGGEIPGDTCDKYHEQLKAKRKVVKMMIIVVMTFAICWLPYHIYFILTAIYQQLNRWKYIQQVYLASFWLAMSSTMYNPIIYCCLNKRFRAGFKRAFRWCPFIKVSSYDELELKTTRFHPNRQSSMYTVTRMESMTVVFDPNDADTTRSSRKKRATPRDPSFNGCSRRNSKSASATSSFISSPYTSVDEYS
# NK1, sequence (P25103 whole entry): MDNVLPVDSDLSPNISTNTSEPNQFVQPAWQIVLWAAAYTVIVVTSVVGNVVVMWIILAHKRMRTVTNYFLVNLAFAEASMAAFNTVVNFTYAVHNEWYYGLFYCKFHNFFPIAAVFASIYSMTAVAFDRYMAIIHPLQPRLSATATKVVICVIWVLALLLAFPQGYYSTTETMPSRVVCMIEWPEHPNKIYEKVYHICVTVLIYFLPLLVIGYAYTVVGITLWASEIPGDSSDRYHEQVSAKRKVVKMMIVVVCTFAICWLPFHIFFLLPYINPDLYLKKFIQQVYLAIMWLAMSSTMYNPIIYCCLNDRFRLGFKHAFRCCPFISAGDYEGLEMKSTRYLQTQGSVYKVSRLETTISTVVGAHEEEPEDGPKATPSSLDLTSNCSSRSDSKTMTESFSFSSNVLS
IC50 (NK1) [nM],IC50 (NK2) [µM],IC50 (NK3) [µM],Compound
468,1.26,~10,O=C(c1cc(C(F)(F)F)cc(C(F)(F)F)c1)N1CC[C@H](N2CCC3(CC2)CCN(S(=O)(=O)c2cc(Cl)c(Cl)s2)CC3)C[C@H]1Cc1ccccc1 [Compound 96]
977,> 10,> 10,O=C(c1cc(C(F)(F)F)cc(C(F)(F)F)c1)N1CC[C@H](N2CCC3(CC2)CCN(S(=O)(=O)c2cc(Br)c(Br)s2)CC3)C[C@H]1Cc1ccccc1 [Compound 98]
562,> 10,> 10,O=C(c1cc(C(F)(F)F)cc(C(F)(F)F)c1)N1CC[C@H](N2CCC3(CC2)CCN(S(=O)(=O)c2c(Cl)sc(Cl)c2Br)CC3)C[C@H]1Cc1ccccc1 [Compound 99]
12,1.26,0.331,Cc1nc(S(=O)(=O)N2CCC3(CCN([C@H]4CCN(C(=O)c5cc(C(F)(F)F)cc(C(F)(F)F)c5)[C@H](Cc5ccccc5)C4)CC3)CC2)cn1C [Compound 100]
49,2,6.03,Cc1noc(C)c1S(=O)(=O)N1CCC2(CCN([C@H]3CCN(C(=O)c4cc(C(F)(F)F)cc(C(F)(F)F)c4)[C@H](Cc4ccccc4)C3)CC2)CC1 [Compound 101]
61.7,> 10,0.708,O=C(c1cc(C(F)(F)F)cc(C(F)(F)F)c1)N1CC[C@H](N2CCC3(CC2)CCN(S(=O)(=O)c2ccccc2)CC3)C[C@H]1Cc1ccccc1 [Compound 102]
50.1,2.51,1.51,Cc1ccccc1S(=O)(=O)N1CCC2(CCN([C@H]3CCN(C(=O)c4cc(C(F)(F)F)cc(C(F)(F)F)c4)[C@H](Cc4ccccc4)C3)CC2)CC1 [Compound 103]
64.6,~4.57,1.95,Cc1cccc(S(=O)(=O)N2CCC3(CCN([C@H]4CCN(C(=O)c5cc(C(F)(F)F)cc(C(F)(F)F)c5)[C@H](Cc5ccccc5)C4)CC3)CC2)c1 [Compound 104]
105,2.45,2,Cc1ccc(S(=O)(=O)N2CCC3(CCN([C@H]4CCN(C(=O)c5cc(C(F)(F)F)cc(C(F)(F)F)c5)[C@H](Cc5ccccc5)C4)CC3)CC2)cc1 [Compound 105]
115,4.17,3.16,O=C(c1cc(C(F)(F)F)cc(C(F)(F)F)c1)N1CC[C@H](N2CCC3(CC2)CCN(S(=O)(=O)c2cccc(Cl)c2)CC3)C[C@H]1Cc1ccccc1 [Compound 107]
324,2.63,3.98,O=C(c1cc(C(F)(F)F)cc(C(F)(F)F)c1)N1CC[C@H](N2CCC3(CC2)CCN(S(=O)(=O)c2ccc(Cl)cc2)CC3)C[C@H]1Cc1ccccc1 [Compound 108]
204,~0.229,5.37,O=C(c1cc(C(F)(F)F)cc(C(F)(F)F)c1)N1CC[C@H](N2CCC3(CC2)CCN(S(=O)(=O)c2c(Cl)cccc2Cl)CC3)C[C@H]1Cc1ccccc1 [Compound 111]
550,> 10,> 10,O=C(c1cc(C(F)(F)F)cc(C(F)(F)F)c1)N1CC[C@H](N2CCC3(CC2)CCN(S(=O)(=O)c2ccc(Cl)cc2Cl)CC3)C[C@H]1Cc1ccccc1 [Compound 112]
427,> 10,> 10,O=C(c1cc(C(F)(F)F)cc(C(F)(F)F)c1)N1CC[C@H](N2CCC3(CC2)CCN(S(=O)(=O)c2ccc(Cl)c(Cl)c2)CC3)C[C@H]1Cc1ccccc1 [Compound 113]
363,> 10,> 10,O=C(c1cc(C(F)(F)F)cc(C(F)(F)F)c1)N1CC[C@H](N2CCC3(CC2)CCN(S(=O)(=O)c2cc(Cl)cc(Cl)c2)CC3)C[C@H]1Cc1ccccc1 [Compound 114]
490,> 10,> 10,O=C(c1cc(C(F)(F)F)cc(C(F)(F)F)c1)N1CC[C@H](N2CCC3(CC2)CCN(S(=O)(=O)c2cc(Cl)c(Cl)cc2Cl)CC3)C[C@H]1Cc1ccccc1 [Compound 115]
52.5,> 10,0.708,O=C(c1cc(C(F)(F)F)cc(C(F)(F)F)c1)N1CC[C@H](N2CCC3(CC2)CCN(S(=O)(=O)c2ccc(F)cc2)CC3)C[C@H]1Cc1ccccc1 [Compound 116]

IC50 (NK1) [nM],IC50 (NK2) [µM],IC50 (NK3) [µM],Compound
447,> 10,> 10,O=C(c1cc(C(F)(F)F)cc(C(F)(F)F)c1)N1CC[C@H](N2CCC3(CC2)CCN(S(=O)(=O)c2ccc(C(F)(F)F)cc2)CC3)C[C@H]1Cc1ccccc1 [Compound 117]
66.1,1.07,1.58,N#Cc1ccc(S(=O)(=O)N2CCC3(CCN(C4CCN(C(=O)c5cc(C(F)(F)F)cc(C(F)(F)F)c5)C(Cc5ccccc5)C4)CC3)CC2)cc1 (stereo not drawn) [Compound 119]
112,1.2,3.72,COc1ccc(S(=O)(=O)N2CCC3(CCN([C@H]4CCN(C(=O)c5cc(C(F)(F)F)cc(C(F)(F)F)c5)[C@H](Cc5ccccc5)C4)CC3)CC2)cc1 [Compound 121]
44.7,3.98,> 10,COc1ccc(S(=O)(=O)N2CCC3(CCN([C@H]4CCN(C(=O)c5cc(C(F)(F)F)cc(C(F)(F)F)c5)[C@H](Cc5ccccc5)C4)CC3)CC2)cc1OC [Compound 122]
70.8,~4.07,> 10,COc1ccc(OC)c(S(=O)(=O)N2CCC3(CCN([C@H]4CCN(C(=O)c5cc(C(F)(F)F)cc(C(F)(F)F)c5)[C@H](Cc5ccccc5)C4)CC3)CC2)c1 [Compound 123]
23.4,~2.57,1.78,CC(=O)Nc1ccc(S(=O)(=O)N2CCC3(CCN([C@H]4CCN(C(=O)c5cc(C(F)(F)F)cc(C(F)(F)F)c5)[C@H](Cc5ccccc5)C4)CC3)CC2)cc1 [Compound 124]
158,5.13,6.92,CS(=O)(=O)c1ccccc1S(=O)(=O)N1CCC2(CCN([C@H]3CCN(C(=O)c4cc(C(F)(F)F)cc(C(F)(F)F)c4)[C@H](Cc4ccccc4)C3)CC2)CC1 [Compound 125]
33.1,3.39,3.98,O=C(c1cc(C(F)(F)F)cc(C(F)(F)F)c1)N1CC[C@H](N2CCC3(CC2)CCN(S(=O)(=O)Cc2ccccc2)CC3)C[C@H]1Cc1ccccc1 [Compound 126]
263,4.68,> 10,O=C(c1cc(C(F)(F)F)cc(C(F)(F)F)c1)N1CC[C@H](N2CCC3(CC2)CCN(S(=O)(=O)Cc2cccc(Cl)c2)CC3)C[C@H]1Cc1ccccc1 [Compound 127]
562,5.37,> 10,O=C(c1cc(C(F)(F)F)cc(C(F)(F)F)c1)N1CC[C@H](N2CCC3(CC2)CCN(S(=O)(=O)C=Cc2ccccc2)CC3)C[C@H]1Cc1ccccc1 [Compound 128]
17.4,0.776,1.41,O=C(C1CC1)N1CCC2(CC1)CCN([C@H]1CCN(C(=O)c3cc(C(F)(F)F)cc(C(F)(F)F)c3)[C@H](Cc3ccc(Cl)c(Cl)c3)C1)CC2 [Compound 131]
9.55,1.7,0.912,O=C(C1CCOC1)N1CCC2(CC1)CCN([C@H]1CCN(C(=O)c3cc(C(F)(F)F)cc(C(F)(F)F)c3)[C@H](Cc3ccc(Cl)c(Cl)c3)C1)CC2 (stereo partly drawn) [Compound 132]
53.7,3.72,4.9,O=C(c1ccsc1)N1CCC2(CC1)CCN([C@H]1CCN(C(=O)c3cc(C(F)(F)F)cc(C(F)(F)F)c3)[C@H](Cc3ccc(Cl)c(Cl)c3)C1)CC2 [Compound 133]
17,2,0.692,O=C(C1CC1)N1CCC2(CC1)CCN([C@H]1CCN(C(=O)c3cc(C(F)(F)F)cc(C(F)(F)F)c3)[C@H](Cc3ccc(F)c(F)c3)C1)CC2 [Compound 136]
27.5,3.47,1.7,O=C(C1CCOC1)N1CCC2(CC1)CCN([C@H]1CCN(C(=O)c3cc(C(F)(F)F)cc(C(F)(F)F)c3)[C@H](Cc3ccc(F)c(F)c3)C1)CC2 (stereo partly drawn) [Compound 137]
17.8,4.68,> 10,CC1(C)OC(=O)CC1C(=O)N1CCC2(CC1)CCN([C@H]1CCN(C(=O)c3cc(C(F)(F)F)cc(C(F)(F)F)c3)[C@H](Cc3ccc(F)c(F)c3)C1)CC2 (stereo partly drawn) [Compound 138]
38.9,2.4,0.955,O=C1CCC(C(=O)N2CCC3(CC2)CCN([C@H]2CCN(C(=O)c4cc(C(F)(F)F)cc(C(F)(F)F)c4)[C@H](Cc4ccc(F)c(F)c4)C2)CC3)N1 (stereo partly drawn) [Compound 139]
